Key:
[1] = cold and warm water; from Beilsteins Handbuch; cited from earlier work
[2] = Solubility in water; format: physicochemical; conditions: general statement, no test described

Löslichkeit in Wasser [2]	SMILES	Löslichkeit in kaltem und warmen Wasser [1]
–	Cc1cc(=O)oc2cc(O)ccc12 [Hymecromon, 7-Hydroxy-4-methyl-cumarin]	nahezu unlöslich
gut löslich	Cc1cc(=O)oc2cc(O)ccc12 [Natriumsalz]	–

Reference: patent publication EP0240874A1, “Highly resorbable preparation of hymecromone, and method for its production” (Dolorgiet GmbH & Co. KG, priority 1986, dated 1987)
